Measured values published in patent publication EP4595972A1, “PEPTIDE FOR TREATING OR PREVENTING 4R TAUOPATHY” (GemVax & KAEL Co., Ltd., priority 2022, dated 2024).

Tests used:
[1] = tested on: human Tau-BiFC (hTau-VN173, hTau-VC155); experiment: Tau immunoblot of brain lysate, soluble fraction, hTau; assay type: in vivo, mouse; conditions: LMTM 15 mg/kg oral vs. vehicle; decrease (in parentheses)
Procedure: • (1) After completing administration, the mice of TauP301L-BiFC mouse model were anesthetized, followed by preparing heart laparotomy. • (2) Saline was introduced to the heart of each mouse in the TauP301L-BiFC mouse model, followed by removing vivo blood using a perfusion pump machine. • (3) After removing the blood, the brain was extracted and weighed. • (4) 1 mL RIPA buffer (w/protease/phosphatase inhibitor cocktail) was added to the extracted brain, followed by homogenization. • (5) After moving the homogenized brain lysate to an ep-tube, it was subjected to incubation in 4°C orbital shaker for 2 hours. • (6) After centrifugation at 4°C with a speed of 13,000 rpm for 20 minutes, the supernatant (soluble fraction) was collected in a new ep-tube and stored at -80°C • (7) In order to prepare an immunoblot sample, the concentration of a soluble fraction sample was quantified by Bradford protein quantification method. • (8) To each sample, RIPA buffer and 4X SDS Laemmli sample buffer (w/ 2.5% β-mercaptoethanol for reducing condition) were added to reach a final concentration of 2 mg/mL. • (9) The sample was boiled at 97°C for 5 minutes. […]

[2] = patients with mild or moderate Alzheimer's disease; most general cause for stopping high-dose LMTM; cited from earlier work

CN(C)c1ccc2c(c1)Sc1cc(N(C)C)ccc1N2.CS(=O)(=O)O.CS(=O)(=O)O [LMTM]
Soluble fraction, Phosphorylated tau, hTau (pS199) [1]: (20%)
Soluble fraction, Phosphorylated tau, hTau (pS396) [1]: (23%)
Soluble fraction, Total tau, hTau [1]: (20%)
most common side effects [2]: most common side effects related to gastrointestinal and urinary system
